From ChEMBL document CHEMBL1201862, “PubChem BioAssay data set” (2004)
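All cell lines were grown in 96-well plates and treated with compound for 48 hours. GI50: concentration for 50% inhibition of growth.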 Activity calls are given as the source filed them. Rule as the data show it: active = GI50 up to about 1.1 µM and inactive = higher.

How the values were obtained:
Experiment in all cases: growth of human tumour cells (NCI), 48 h
SK-OV-3 = system: SK-OV-3
K562 = system: K562
SF-539 = system: SF-539
HCT-116 = system: HCT-116
ACHN = system: ACHN
RXF 393 = system: RXF 393
HT-29 = system: HT-29
SK-MEL-28 = system: SK-MEL-28
SW-620 = system: SW-620
SNB-19 = system: SNB-19
IGROV-1 = system: IGROV-1
MDA-MB-435 = system: MDA-MB-435
NCI-H23 = system: NCI-H23
U-251 = system: U-251
EKVX = system: EKVX
A498 = system: A498
UACC-257 = system: UACC-257
RPMI-8226 = system: RPMI-8226
OVCAR-8 = system: OVCAR-8
OVCAR-4 = system: OVCAR-4

Measured: GI50

O=C1C(C(c2ccc([N+](=O)[O-])cc2)N2CCOCC2)=C(O)C(c2ccccc2)N1c1ccccc1 (stereo not given)
inactive: SK-OV-3 > 10 µM | K562 > 10 µM | SF-539 > 10 µM | HCT-116 > 10 µM | ACHN > 10 µM | RXF 393 > 10 µM | HT-29 > 10 µM | SK-MEL-28 > 10 µM | SW-620 > 10 µM | SNB-19 > 10 µM | IGROV-1 > 10 µM | MDA-MB-435 > 10 µM | NCI-H23 > 10 µM | U-251 > 10 µM | EKVX > 10 µM | A498 > 10 µM | UACC-257 > 10 µM | RPMI-8226 > 10 µM | OVCAR-8 > 10 µM | OVCAR-4 > 10 µM
